Source: the NIST ThermoML archive (doi:10.1016/j.fluid.2014.09.014)

Assay: refractive index (other wavelength) (dimensionless); xn = mol fraction of the nth substance listed
Settings: 101 kPa, Liquid, Standard Abbe refractometry

CC(C)OC(C)C [diisopropyl ether] + CC(C)O
refractive index
Settings	Wavelength=404.7 nm	Wavelength=435.8 nm	Wavelength=486.1 nm	Wavelength=546.1 nm	Wavelength=587.6 nm	Wavelength=589.3 nm	Wavelength=632.8 nm	Wavelength=644 nm	Wavelength=706.5 nm
298.15 K, x1 = 0.0277	–	–	–	–	–	1.37492	1.3736	1.37329	1.37183
298.15 K, x1 = 0.0507	–	–	–	–	–	1.37483	1.37352	1.37322	1.37174
298.15 K, x1 = 0.051	–	–	–	–	–	1.37489	1.37358	1.37327	1.37179
298.15 K, x1 = 0.0717	–	–	–	–	–	1.37462	1.37331	1.373	1.37152
298.15 K, x1 = 0.1528	–	–	–	–	–	1.37401	1.3727	1.3724	1.37093
298.15 K, x1 = 0.1553	–	–	–	–	–	1.37401	1.3727	1.3724	1.37093
298.15 K, x1 = 0.1938	–	–	–	–	–	1.37373	1.37243	1.37213	1.37068
298.15 K, x1 = 0.2029	–	–	–	–	–	1.37346	1.37215	1.37185	1.37039
298.15 K, x1 = 0.245	–	–	–	–	–	1.37306	1.37177	1.37147	1.37002
298.15 K, x1 = 0.297	–	–	–	–	–	1.37259	1.3713	1.371	1.36955
298.15 K, x1 = 0.2973	–	–	–	–	–	1.37284	1.37156	1.37126	1.3698
298.15 K, x1 = 0.3068	–	–	–	–	–	1.37238	1.37108	1.37078	1.36933
298.15 K, x1 = 0.398	–	–	–	–	–	1.37122	1.36993	1.36964	1.36819
298.15 K, x1 = 0.4609	–	–	–	–	–	1.37063	1.36933	1.36903	1.36758
298.15 K, x1 = 0.5434	–	–	–	–	1.36987	1.36981	1.36853	1.36823	1.36678
298.15 K, x1 = 0.6032	–	–	–	–	1.3693	1.36925	1.36797	1.36767	1.36623
298.15 K, x1 = 0.6371	–	–	–	–	1.36894	1.36889	1.36762	1.36731	1.36587
298.15 K, x1 = 0.701	–	–	–	–	1.36828	1.36823	1.36695	1.36666	1.36523
298.15 K, x1 = 0.754	–	–	–	–	1.36792	1.36786	1.36659	1.36629	1.36485
298.15 K, x1 = 0.791	–	–	–	–	1.36756	1.3675	1.36623	1.36593	1.3645
298.15 K, x1 = 0.8296	–	–	–	–	1.36723	1.36717	1.36589	1.36559	1.36417
298.15 K, x1 = 0.8864	–	–	–	–	1.367	1.36695	1.36567	1.36537	1.36394
298.15 K, x1 = 0.8903	–	–	–	–	1.36659	1.36653	1.36526	1.36497	1.36354
298.15 K, x1 = 0.9113	–	–	–	–	1.3667	1.36631	1.36504	1.36475	1.36332
298.15 K, x1 = 0.9547	–	–	–	–	1.36596	1.36587	1.36459	1.3643	1.36289
298.15 K, x1 = 0.973	–	–	–	–	1.3656	1.36557	1.3643	1.364	1.36258
298.15 K, x1 = 0.9771	–	–	–	–	1.36557	1.36551	1.36423	1.36393	1.36281
298.15 K, x1 = 1	–	–	–	–	1.36535	1.3653	1.36402	1.36373	1.36237
303.15 K, x1 = 0.0277	1.38362	1.3806	1.37718	1.37435	1.37285	1.37279	1.37149	1.37119	1.36973
303.15 K, x1 = 0.0507	1.38359	1.38056	1.37714	1.3743	1.3728	1.37274	1.37145	1.37115	1.36969
303.15 K, x1 = 0.051	1.38351	1.38049	1.37707	1.37423	1.37273	1.37268	1.37138	1.37107	1.36962
303.15 K, x1 = 0.0717	1.38322	1.3802	1.37678	1.37395	1.37244	1.37238	1.37109	1.37079	1.36934
303.15 K, x1 = 0.1528	1.38258	1.37956	1.37614	1.37331	1.37181	1.37176	1.37047	1.37018	1.36872
303.15 K, x1 = 0.1553	1.38258	1.37956	1.37614	1.37331	1.37181	1.37176	1.37047	1.37018	1.36872
303.15 K, x1 = 0.1938	1.38229	1.37926	1.37584	1.37303	1.37153	1.37147	1.37018	1.36988	1.36843
303.15 K, x1 = 0.2029	1.38193	1.37892	1.37549	1.37266	1.37116	1.37111	1.36981	1.36952	1.36807
303.15 K, x1 = 0.245	1.38148	1.37846	1.37506	1.37223	1.37075	1.37069	1.36941	1.36911	1.36767
303.15 K, x1 = 0.297	1.38091	1.37798	1.37446	1.37163	1.37013	1.37008	1.3688	1.3685	1.36705
303.15 K, x1 = 0.2973	1.38111	1.37809	1.37467	1.37184	1.37036	1.37031	1.36902	1.36872	1.36727
303.15 K, x1 = 0.3068	1.38076	1.37775	1.37433	1.37149	1.37001	1.36996	1.36867	1.36837	1.36692
303.15 K, x1 = 0.398	1.37951	1.3765	1.37309	1.37025	1.36877	1.36872	1.36744	1.36715	1.3657
303.15 K, x1 = 0.4609	1.37885	1.37585	1.37245	1.3696	1.36818	1.36807	1.3668	1.3665	1.36501
303.15 K, x1 = 0.5434	1.37802	1.37503	1.37161	1.36879	1.36731	1.36726	1.36598	1.36567	1.36425
303.15 K, x1 = 0.6032	1.37738	1.3744	1.37096	1.36815	1.36667	1.36661	1.36533	1.36504	1.36362
303.15 K, x1 = 0.6371	1.37701	1.37401	1.37059	1.36779	1.36631	1.36626	1.36497	1.36466	1.36326
303.15 K, x1 = 0.701	1.37631	1.37333	1.36992	1.36711	1.36564	1.36559	1.36431	1.36401	1.36259
303.15 K, x1 = 0.754	1.37593	1.37295	1.36954	1.36673	1.36525	1.36519	1.36391	1.36362	1.36221
303.15 K, x1 = 0.791	1.37553	1.37254	1.36913	1.36633	1.36485	1.3648	1.36352	1.36323	1.36182
303.15 K, x1 = 0.8296	1.37518	1.37221	1.3688	1.36599	1.36453	1.36447	1.3632	1.3629	1.36148
303.15 K, x1 = 0.8864	1.37495	1.37197	1.36856	1.36576	1.3643	1.36424	1.36297	1.36267	1.36126
303.15 K, x1 = 0.8903	1.37451	1.37154	1.36813	1.36533	1.36386	1.36381	1.36254	1.36225	1.36083
303.15 K, x1 = 0.9113	1.37428	1.37131	1.36791	1.36511	1.36365	1.3636	1.36233	1.36203	1.36061
303.15 K, x1 = 0.9547	1.37382	1.37084	1.36747	1.36465	1.36319	1.36314	1.36187	1.36157	1.36016
303.15 K, x1 = 0.973	1.37347	1.3705	1.36711	1.3643	1.36285	1.36279	1.36153	1.36123	1.35983
303.15 K, x1 = 0.9771	1.37338	1.3704	1.36702	1.36421	1.36275	1.3627	1.36145	1.36115	1.35972
303.15 K, x1 = 1	1.37321	1.37022	1.36687	1.36406	1.3626	1.36255	1.3613	1.361	1.3596
